This is an account of results in patent publication US20060014826A1, “Dioxocyclohexane carboxylic acid phenyl amide derivatives for modulating voltage-gated potassium channels and pharmaceutical compositions containing the same” (Wyeth, priority 2004, published 2006).

For data set [1], the target named is T1, human Kv1.1/Kvβ1 potassium ion channel complex (Homo sapiens, UniProt Q09470+Q14722).
T1 construct: expressed in transfected cells; host or cells: Xenopus oocytes injected with cRNA
In words: Inhibiting the inactivation of Kv1.1/Kvβ1 potassium ion channel complex, voltage clamp current recordings in Xenopus oocytes. It is filed as cell-based. The settings on record: relative to control oocytes without test compound, read-out: Percent Increase in Steady State Current (@ concentration shown in parentheses). The procedure:
Compounds useful in this invention were examined for their ability to inhibit the inactivation of the human Kv1.1/Kvβ1 potassium ion channel complex in vitro using electrophysiological current recordings on inactivating Kv1.1/Kvβ1channels expressed in Xenopus oocytes. The following procedure was used.
Xenopus oocytes were harvested from frogs under general anesthesia using aseptic techniques. Oocytes were treated with 2 mg/ml collagenase for 1-1.5 hr, defolliculated, and injected with 40 nL cRNA (a mixture of hKv1.1 and hKvβ1) produced using standard molecular biological techniques (Sambrook, et al., 1989, Molecular Cloning: A Laboratory Manual). The concentration of hKv1.1/hKvβ1 cRNA varies, but was generally about 50 ng/μL hKv1.1 and […] hkβ1.
Currents were recorded using standard voltage clamp amplifiers at room temperature. Recordings were performed in the bath solution “ND-96” containing 96 mM NaCl, 2 mM KCl, 1 mm CaCl2, 1 mM MgCl2, 10 mM HEPES and […] Gentamycin (pH=7.6). The pipette (electrode) solution generally consisted of 3 mM KCl. Electrodes were made from WPI TW150F-4 borosilicate glass (or equivalent) and typically had resistances of 0.5-1.5 Mohms. The standard current—voltage (IV) pulse protocol consisted of voltage steps from −60 mV to +50 mV, in 10 mV increments for 200 ms, at a frequency of one IV set per 2 minutes. Data were digitized and analyzed by standard software packages.
Test compounds where first dissolved in DMSO to an initial concentration of 1-100 mM. Working dilutions of 1:2000 to 1:500 were made in the bath solution for final concentrations in the micromolar range. The bath solutions containing the test compounds were applied by bath perfusion using gravity or pump-driven flow. A minimum of 2 mL (10 times the bath volume) over 3 minutes were flowed for each compound concentration tested. Data were averaged across at least 3 cells tested for each concentration.
Test compounds were examined for their ability to inhibit the inactivation of the steady state portion of the IV curve.

Data set [2] has as its system mouse 4-Plate model (punished crossings). In words: Anxiolytic activity, mouse 4-Plate model. It is filed as in vivo, male Swiss Webster mice. The procedure:
Anxiolytic activity of the compounds of this invention was determined using the mouse 4-Plate model, originally described by Boissier et al. (Eur. J. Pharmacol. (1968) 4:145-151). The test procedure used is described in further detail below. Anxiolytic efficacy is measured as the ability of the test compound to increase the number of times that an animal will accept a mild punishment (in the form of a foot shock) in order to explore its environment. A number of clinically effective treatments for anxiety from multiple pharmacological classes are effective in this model (Hascoet et al., Pharmacol. Biochem. Beh. (2000) 65:339-344).
The compound of Example 8 was examined in the 4-Plate model.
Experimental Protocol for the 4-Plate Model
The “four-plate” apparatus consisted of a Plexiglas cage (18×25×16 cm) floored by four identical rectangular metal plates (8×11 cm) separated from one another by a gap of 4 mm. The plates were connected to a device that generated electric shocks (0.8 mA, 0.5 sec). […] Test animals (male Swiss Webster mice) were group housed with ad-lib access to food and water. Compounds were administered at the appropriate dose ip. 30 min prior to testing. Control animals were given the vehicle without drug. Animals were then placed in the 4-plate apparatus and allowed to habituate for 18 seconds. Following the 18-sec habituation period, an electric shock (0.8 mA, 0.5 sec) was delivered to the mouse when crossing from one plate to another. No shocks were delivered during the 3 seconds following shock administration. The number of punished crossings was recorded during a 1-min testing period. Data were expressed as the percent change in the number of punished crossings relative to control.

Data set [3] relates to seizures induced by administration of pentylenetetrazole (PTZ). As to the kind of experiment: Inhibiting PTZ induced seizures. It is filed as in vivo. The note with it: Mus musculus; adult mice, i.p. pretreatment 30 min before PTZ 85 mg/kg s.c., 30 minute test period; read-out: ED50, Dose Range. As for the experimental part: Compounds useful in this invention were also examined for their anticonvulsant activity in vivo by assessing their ability to inhibit the seizures induced by administration of pentylenetetrazole (PTZ). Adult mice were pretreated intraperitoneally with the test compound. Thirty minutes later these animals were challenged with pentylenetetrazole (85 mg/kg, s.c.) and observed for onset of seizures during a 30 minute test period.

T1 sequence (Q09470 whole entry): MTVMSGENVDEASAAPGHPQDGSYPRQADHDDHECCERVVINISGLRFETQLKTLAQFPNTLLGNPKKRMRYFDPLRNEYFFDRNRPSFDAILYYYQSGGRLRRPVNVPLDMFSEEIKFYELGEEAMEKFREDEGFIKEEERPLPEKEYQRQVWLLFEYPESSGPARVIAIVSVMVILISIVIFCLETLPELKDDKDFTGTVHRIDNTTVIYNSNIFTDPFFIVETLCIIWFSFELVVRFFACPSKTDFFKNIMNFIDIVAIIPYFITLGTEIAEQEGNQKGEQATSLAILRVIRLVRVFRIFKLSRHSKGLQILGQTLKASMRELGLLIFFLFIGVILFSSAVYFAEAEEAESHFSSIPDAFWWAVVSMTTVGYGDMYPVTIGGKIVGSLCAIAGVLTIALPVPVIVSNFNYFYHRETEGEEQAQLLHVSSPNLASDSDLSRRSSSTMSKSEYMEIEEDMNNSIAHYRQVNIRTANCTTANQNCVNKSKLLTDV
T1 sequence (Q14722 whole entry): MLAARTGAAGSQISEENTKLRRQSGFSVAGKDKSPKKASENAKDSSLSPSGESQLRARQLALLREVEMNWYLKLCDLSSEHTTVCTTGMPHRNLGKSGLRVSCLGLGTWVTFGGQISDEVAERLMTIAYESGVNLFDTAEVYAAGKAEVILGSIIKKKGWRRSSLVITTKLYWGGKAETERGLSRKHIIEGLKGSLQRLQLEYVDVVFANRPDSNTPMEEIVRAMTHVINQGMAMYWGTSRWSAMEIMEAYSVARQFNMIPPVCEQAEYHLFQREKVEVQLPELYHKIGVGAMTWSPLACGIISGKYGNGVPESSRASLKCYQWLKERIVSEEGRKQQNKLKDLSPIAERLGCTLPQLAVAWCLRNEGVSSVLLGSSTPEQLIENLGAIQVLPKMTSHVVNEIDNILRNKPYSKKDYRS

Usually melting point stands for the temperature of the solid-liquid transition. `CCC1(C)CC(=O)C(C(=O)Nc2cc(C(F)(F)F)cc(C(F)(F)F)c2)C(=O)C1` (stereo not drawn) [Example 18, N-(3,5-bis-trifluoromethylphenyl)-4-ethyl-4-methyl-2,6-dioxocyclohexanecarboxamide] yielded a melting point of 72 to 73 °C. Besides, the activation at 50 µM in data set [1] turned out to be 106%.

Consider `CC1(C)CC(=O)C(C(=S)Nc2ccc(Cl)c(C(F)(F)F)c2)C(=O)C1` [Example 4, N-[4-chloro-3-(trifluoromethyl)phenyl]-4,4-dimethyl-2,6-dioxocyclohexane-carbothioamide], for which the melting point fell in the range of 101 to 102 °C. Moreover, the activation at 300 µM in data set [1] (300 μm) was found to be 9%.

Regarding `CC1(C)CC(=O)C(C(=O)Nc2cc(F)cc(F)c2)C(=O)C1F` (stereo not drawn) [Example 29, 3-Fluoro-4,4-dimethyl-2,6-dioxo-cyclohexanecarboxylic acid(3,5-difluoro-phenyl)-amide], the melting point was in the range of 131 to 132 °C. Moreover, the activation at 50 µM in data set [1] amounted to 258%.

On to `Cc1nnc2n1-c1ccc(Cl)cc1C(c1ccccc1)=NC2` [Alprazolam, reference compound], for which the “Punished crossings (% of control)” value in data set [2] (0.3 mg/kg ip., 30 min prior to testing) is recorded as 170%. Also, in data set [2] (at therapeutically relevant doses), the “increase in the number of punished crossings” value is listed as 70%.

Regarding `CC1(C)CC(=O)C(C(=O)Nc2ccc(Cl)c(Cl)c2)C(=O)O1` (stereo not drawn) [Example 23, N-(3,4-dichlorophenyl)-6,6-dimethyl-2,4-dioxotetrahydro-2H-pyran-3-carboxamide], the melting point lay within 212 to 215 °C. The activation at 50 µM in data set [1] amounted to 22%.

With `CC1(C)CC(=O)C(C(=O)Nc2ccc(C(F)(F)F)cc2)C(=O)O1` (stereo not drawn) [Example 20, N-[4-(trifluoromethyl)phenyl]-6,6-dimethyl-2,4-dioxotetrahydro-2H-pyran-3-carboxamide], the melting point was 175.9 to 176.4 °C. Further, the activation at 50 µM in data set [1] is 17%.

With `CCC1(C)CC(=O)C(C(=O)Nc2ccc(C(F)(F)F)cc2)C(=O)C1` (stereo not drawn) [Example 17, N-(4-trifluoromethylphenyl)-4-ethyl-4-methyl-2,6-dioxocyclohexanecarboxamide], the melting point is 99 to 100 °C. The activation at 50 µM in data set [1] came out at 105%.

As to `CC1(C)COC(=O)C(C(=O)Nc2ccc(Cl)c(C(F)(F)F)c2)C1=O` (stereo not drawn) [Example 26, N-[4-chloro-3-(trifluoromethyl)phenyl]-5,5-dimethyl-2,4-dioxotetrahydro-2H-pyran-3-carboxamide], the melting point fell in the range of 144 to 145 °C. The activation at 50 µM in data set [1] turned out to be 173%.

Consider `CC1(C)CC(=O)C(C(=O)Nc2ccc(Cl)c(C(F)(F)F)c2)C(=O)O1` (stereo not drawn) [Example 19, N-[4-chloro-3-(trifluoromethyl)phenyl]-6,6-dimethyl-2,4-dioxotetrahydro-2H-pyran-3-carboxamide], for which the melting point lay within 156 to 156.4 °C. For the same molecule, in data set [1], the activation at 50 µM turned out to be 68%.

On to `CCC1(C)CC(=O)C(C(=O)Nc2ccc(Cl)c(Cl)c2)C(=O)C1` (stereo not drawn) [Example 15, N-(3,4-dichlorophenyl)-4-ethyl-4-methyl-2,6-dioxocyclohexanecarboxamide], for which the melting point was 74 to 75 °C. The activation at 50 µM in data set [1] stood at 64%.

The term ED50 denotes the dose that gives a 50% effect, or the effect in half of the subjects. Take `CC1(C)CC(=O)C(C(=O)Nc2cc(C(F)(F)F)cc(C(F)(F)F)c2)C(=O)C1` [Example 9, N-[3,5-bis(trifluoromethyl)phenyl]-4,4-dimethyl-2,6-dioxocyclohexanecarboxamide]: the ED50 in data set [3] came out at 55 mg/kg. Further, the activation at 50 µM in data set [1] was 20%.

`CC1(C)CC(=O)C(C(=O)Nc2ccc(C(F)(F)F)cc2)C(=O)C1F` (stereo not drawn) [Example 27, 3-Fluoro-4,4-dimethyl-2,6-dioxo-cyclohexanecarboxylic acid(4-trifluoromethyl-phenyl)-amide] registered a melting point of 129 °C. In addition, in data set [1], the activation at 50 µM is 191%.

`CC(C)C1CC(=O)C(C(=O)Nc2ccc(Cl)c(Cl)c2)C(=O)C1` (stereo not drawn) [Example 10, N-(3,4-dichlorophenyl)-4-isopropyl-2,6-dioxocyclohexanecarboxamide] came in with a melting point of 138 °C. Also, the activation at 50 µM in data set [1] was 38%.

`CCC1(C)CC(=O)C(C(=O)Nc2ccc(F)c(Cl)c2)C(=O)C1` (stereo not drawn) [Example 16, N-(3-chloro-4-fluororphenyl)-4-ethyl-4-methyl-2,6-dioxocyclohexanecarboxamide] came in with a melting point of 91 to 92 °C. Besides, the activation at 50 µM in data set [1] worked out at 18%.

In turn, `CC1(C)CC(=O)C(C(=O)Nc2cccc([N+](=O)[O-])c2)C(=O)O1` (stereo not drawn) [Example 22, N-(3-nitrophenyl)-6,6-dimethyl-2,4-dioxotetrahydro-2H-pyran-3-carboxamide] gave a melting point of 138.4 to 139.6 °C. The activation at 50 µM in data set [1] was 10%.

`CC1(C)CC(=O)C(C(=O)Nc2cccc(C(F)(F)F)c2)C(=O)C1` [Example 8, N-(3-trifluoromethylphenyl)-4,4-dimethyl-2,6-dioxocyclohexanecarboxamide] came in with a melting point of 116 to 117 °C. Besides, the ED50 in data set [3] is 32 mg/kg. Further, the “increase in the number of punished crossings” value in data set [2] (56 mg/kg ip) is recorded as 31%. Besides, the “% Time Spent in Open Zones (Relative to Control)” value in data set [2] (60 mg/kg ip., 30 min prior to testing) came to 131%. The activation at 100 µM in data set [1] was found to be 40%.

As to `O=C1CSCC(=O)C1C(=O)Nc1ccc(Cl)c(C(F)(F)F)c1` [Example 11, N-[4-chloro-3-(trifluoromethyl)phenyl]-3,5-dioxotetrahydro-2H-thiopyran-4-carboxamide], the melting point lay within 108 to 110 °C. For the same molecule, the activation at 50 µM in data set [1] is 106%.

Take `CC1(C)CC(=O)C(C(=O)Nc2ccc(Cl)c(Cl)c2)C(=O)C1` [Example 2, N-(3,4-dichlorophenyl)-4,4-dimethyl-2,6-dioxocyclohexanecarboxamide]: the melting point was 124 to 129 °C. For the same molecule, the ED50 in data set [3] came to 50 mg/kg. Also, in data set [1], the activation at 100 µM came out at 75%.

Molecule `CC1(C)CC(=O)C(C(=O)Nc2cccc(Cl)c2)C(=O)C1` [Example 1, N-(3-chlorophenyl)-4,4-dimethyl-2,6-dioxocyclohexanecarboxamide] registered a melting point of 89 to 91 °C. The ED50 in data set [3] amounted to 30 mg/kg. In data set [1], the activation at 100 µM is 21%.

`CCC1(C)CC(=O)C(C(=O)Nc2cccc(C(F)(F)F)c2)C(=O)C1` (stereo not drawn) [Example 13, N-(3-trifluoromethylphenyl)-4-ethyl-4-methyl-2,6-dioxocyclohexanecarboxamide] yielded a melting point of 81 to 82 °C. The activation at 50 µM in data set [1] came to 9%.
